Positions of bridges follow the written chain, without caps; N, C: chain ends. Non-standard residues stand in square brackets, D forms with d. Residues, ends and D or L forms follow the SMILES beside them. Phe(F5) = N[C@@H](Cc1c(F)c(F)c(F)c(F)c1F)C(=O)O; dDip = N[C@@H](C(=O)O)C(c1ccccc1)c1ccccc1; dPhe(4-Cl) = N[C@H](Cc1ccc(Cl)cc1)C(=O)O; Dip = N[C@H](C(=O)O)C(c1ccccc1)c1ccccc1; Phe(4-F) = N[C@@H](Cc1ccc(F)cc1)C(=O)O; dPhe(4-F) = N[C@H](Cc1ccc(F)cc1)C(=O)O; 2Nal = N[C@@H](Cc1ccc2ccccc2c1)C(=O)O; d2Nal = N[C@H](Cc1ccc2ccccc2c1)C(=O)O; 2Pal = N[C@@H](Cc1ccccn1)C(=O)O; 3Pal = N[C@@H](Cc1cccnc1)C(=O)O; Tle = CC(C)(C)[C@H](N)C(=O)O

For one experiment, the system named is rat pituitary cells. The class given is cell-based. Particulars: 3 h. An excerpt:
Bioassay on the In Vitro Release of Growth Hormone
(a) Rat Pituitary Cell Dispersion
Pituitaries from adult Charles River CD male rats (Wilmington, Mass.) housed under controlled conditions were dispersed and cultured using aseptic technique by modification of previously described methods (Hoefer, M. T., et al., Mol. Cell. Endocrinol. 35:229 (1984); Ben-Jonathan, N., et al., Methods Enzymol. 103:249 (1983); and Heiman, M. L., et al., Endocrinology 116:410 (1985)). Pituitaries were removed from sacrificed rats, sectioned, and then placed into a siliconized, liquid scintillation vial containing 2 ml 0.2% trypsin (Worthington Biochemicals, Freehold, N.J.) in sterile-filtered Krebs-Ringer bicarbonate buffer supplemented with 1% bovine serum albumin, 14 mM glucose, modified Eagle medium (MEM) vitamin solution, and MEM amino acids (Gibco Laboratories, Grand Island, N.Y.) (KRBGA). All glassware was siliconized as described by Sayers, et al., Endocrinology 88:1063 (1971). The fragments were incubated in a water bath for 35 min at 37° C. with agitation. The vial contents then were poured into a scintillation vial containing 2 ml 0.1% DNase (Sigma Chemical Co., St. Louis, Mo.) in KRBGA and incubated for 2 min at 37° C. with agitation. After incubation, the tissue was decanted into a 15 ml centrifuge tube and allowed to settle. Medium was discarded, and pituitary sections were washed 3 times with 1 ml fresh-KRBGA. The cells were then dispersed in 2 ml 0.05% LBI (lima bean trypsin inhibitor, Worthington Biochemicals) by gently drawing the fragments into and expelling them out of a siliconized, fire polished Pasteur pipette. Dispersed cells were then filtered through a 630 μm diameter Nylon mesh (Tetko, Elmsford, N.Y.) into a fresh 15 ml centrifuge tube. An additional 2 ml of 0.05% LBI solution was used to rinse the first tube and was transferred to the second tube with filtering.
The dispersed cells were then further diluted with approximately 15 ml sterile-filtered Dulbecco's modified Eagle medium (GIBCO), which was supplemented with 2.5% fetal calf serum (GIBCO), 3% horse serum (GIBCO), 10% fresh rat serum (stored on ice for no longer than 1 hr) from the pituitary donors, 1% MEM non-essential amino acids (GIBCO), and gentamycin (10 ng/ml; Sigma) and nystatin (10,000 U/ml; GIBCO). The cells were poured into a 50 ml round-bottomed glass extraction flask with a large diameter opening and then randomly plated at a density of approximately 200,000 cells per well (Co-star cluster 24; Rochester Scientific Co., Rochester, N.Y.). The plated cells were maintained in the above Dulbecco's medium in a humidified atmosphere of 95% air and 5% CO2 at 37° C. for 4-5 days.
(c) Experimental Incubation and IC50 Determination
In preparation for a hormone challenge, the cells were washed 3 times with medium 199 (GIBCO) to remove old medium and floating cells. Each treatment well contained a total volume of 1 ml medium 199 containing 1% BSA (fraction V; Sigma) with treatments as described below. Each antagonist candidate was tested using a single 24-well cell culture plate. Each treatment was performed in triplicate. Each plate contained 8 treatment groups: one 1 nM growth hormone releasing factor (GRF) (1-29)NH2-stimulated control group; one 1 nM somatostatin-inhibited control group in the presence of 1 nM GRF(1-29)NH2; and 6 doses of a given antagonist in the presence of both 1 nM SRIF and 1 nM GRF per plate. After 3 hrs at 37° C. in a air/carbon dioxide atmosphere (95/5%), the medium was removed and stored at −20° C. until radioimmunoassayed for growth hormone content. IC50's of each antagonist versus 1 nM SRIF were calculated using a computer program (SigmaPlot, Jandel Scientific, San Rafael, Calif.) with the maximum response constrained to the value of the 1 nM GRF(1-29)NH2-stimulated control.
Broadly, the IC50 is the midpoint of a concentration-inhibition curve. For `CC(C)[C@@H]1NC(=O)[C@H](CCCCN)NC(=O)[C@@H](Cc2c[nH]c3ccccc23)NC(=O)[C@H](Cc2cccnc2)NC(=O)[C@H](NC(=O)[C@@H](N)Cc2c(F)c(F)c(F)c(F)c2F)CSSC[C@@H](C(=O)N[C@@H](Cc2c(F)c(F)c(F)c(F)c2F)C(N)=O)NC1=O` [Analog No. 16, H2—F5-Phe-D-Cys-Pal-D-Trp-Lys-Val-Cys-F5-Phe-NH2] (H-[Phe(F5)][dC][3Pal][dW]KVC[Phe(F5)]-NH2; disulfide 2-7), inhibition was half-maximal at 820 nM (IC50).

`CC(C)[C@@H]1NC(=O)[C@H](CCCCN)NC(=O)[C@@H](Cc2c[nH]c3ccccc23)NC(=O)[C@H](Cc2ccccn2)NC(=O)[C@H](NC(=O)[C@@H](N)Cc2c(F)c(F)c(F)c(F)c2F)CSSC[C@@H](C(=O)N[C@@H](Cc2c(F)c(F)c(F)c(F)c2F)C(N)=O)NC1=O` [Analog No. 17, H2—F5-Phe-D-Cys-2-Pal-D-Trp-Lys-Val-Cys-F5-Phe-NH2] (H-[Phe(F5)][dC][2Pal][dW]KVC[Phe(F5)]-NH2; disulfide 2-7) showed an IC50 of 1000 nM.

For `CC(C)[C@@H]1NC(=O)[C@H](CCCCN)NC(=O)[C@@H](Cc2c[nH]c3ccccc23)NC(=O)[C@H](Cc2cccnc2)NC(=O)[C@H](NC(=O)[C@H](N)C(c2ccccc2)c2ccccc2)CSSC[C@@H](C(=O)N[C@@H](Cc2ccc3ccccc3c2)C(N)=O)NC1=O` [Analog No. 18, H2-D-Dip-D-Cys-Pal-D-Trp-Lys-Val-Cys-β-Nal-NH2] (H-[dDip][dC][3Pal][dW]KVC[2Nal]-NH2; disulfide 2-7), it took 380 nM to reach half-maximal inhibition (IC50).

The compound `CC(C)[C@@H]1NC(=O)[C@H](CCCCN)NC(=O)[C@@H](Cc2c[nH]c3ccccc23)NC(=O)[C@H](Cc2c[nH]cn2)NC(=O)[C@H](NC(=O)[C@@H](N)Cc2ccc3ccccc3c2)CSSC[C@@H](C(=O)N[C@@H](C(N)=O)C(c2ccccc2)c2ccccc2)NC1=O` [Analog No. 19, H2-β-Nal-D-Cys-His-D-Trp-Lys-Val-Cys-D-Dip-NH2] (H-[2Nal][dC]H[dW]KVC[dDip]-NH2; disulfide 2-7) had an IC50 of 110 nM.

In turn, `CC(C)[C@@H]1NC(=O)[C@H](CCCCN)NC(=O)[C@@H](Cc2c[nH]c3ccccc23)NC(=O)[C@H](Cc2c[nH]cn2)NC(=O)[C@H](NC(=O)[C@@H](N)C(c2ccccc2)c2ccccc2)CSSC[C@@H](C(=O)N[C@@H](Cc2ccc3ccccc3c2)C(N)=O)NC1=O` [Analog No. 20, H2-Dip-D-Cys-His-D-Trp-Lys-Val-Cys-β-Nal-NH2] (H-[Dip][dC]H[dW]KVC[2Nal]-NH2; disulfide 2-7) registered a 50% inhibitory concentration (IC50) of 120 nM.

`CC(C)[C@@H]1NC(=O)[C@H](CCCCN)NC(=O)[C@@H](Cc2c[nH]c3ccccc23)NC(=O)[C@H](Cc2c[nH]cn2)NC(=O)[C@H](NC(=O)[C@@H](N)C(c2ccccc2)c2ccccc2)CSSC[C@@H](C(=O)N[C@H](C(N)=O)C(c2ccccc2)c2ccccc2)NC1=O` [Analog No. 21, H2-Dip-D-Cys-His-D-Trp-Lys-Val-Cys-Dip-NH2] (H-[Dip][dC]H[dW]KVC[Dip]-NH2; disulfide 2-7) had a half-maximal inhibitory concentration (IC50) of 970 nM.

As to `CC(C)[C@@H]1NC(=O)[C@H](CCCCN)NC(=O)[C@@H](Cc2c[nH]c3ccccc23)NC(=O)[C@H](Cc2c[nH]cn2)NC(=O)[C@H](NC(=O)[C@@H](N)Cc2ccc3ccccc3c2)CSSC[C@@H](C(=O)N[C@@H](Cc2ccc3ccccc3c2)C(N)=O)NC1=O` [Analog No. 22, H2-β-Nal-D-Cys-His-D-Trp-Lys-Val-Cys-β-Nal-NH2] (H-[2Nal][dC]H[dW]KVC[2Nal]-NH2; disulfide 2-7), the IC50 was 66 nM.

`CC(C)[C@H](NC(=O)[C@H](CCCCN)NC(=O)[C@@H](Cc1c[nH]c2ccccc12)NC(=O)[C@H](Cc1ccc(O)cc1)NC(=O)[C@@H](Cc1ccc(Cl)cc1)NC(=O)[C@@H](N)Cc1ccc2ccccc2c1)C(=O)N[C@@H](Cc1ccccc1)C(=O)N[C@@H](Cc1ccc2ccccc2c1)C(N)=O` [Analog No. 23, H2-β-Nal-D-Cpa-Tyr-D-Trp-Lys-Val-Phe-β-Nal-NH2] (H-[2Nal][dPhe(4-Cl)]Y[dW]KVF[2Nal]-NH2) had a half-maximal inhibitory concentration (IC50) of 910 nM.

In turn, `CC(C)[C@@H]1NC(=O)[C@H](CCCCN)NC(=O)[C@@H](Cc2c[nH]c3ccccc23)NC(=O)[C@H](Cc2cccnc2)NC(=O)[C@H](NC(=O)[C@H](N)Cc2ccc(F)cc2)CSSC[C@@H](C(=O)N[C@H](Cc2ccc(F)cc2)C(N)=O)NC1=O` [Analog No. 27, H2-D-p-F-Phe-D-Cys-Pal-D-Trp-Lys-Val-Cys-D-p-F-Phe-NH2] (H-[dPhe(4-F)][dC][3Pal][dW]KVC[dPhe(4-F)]-NH2; disulfide 2-7) displayed a concentration for half-maximal inhibition (IC50) of 41 nM.

The compound `CC(C)[C@@H]1NC(=O)[C@H](CCCCN)NC(=O)[C@@H](Cc2c[nH]c3ccccc23)NC(=O)[C@H](Cc2cccnc2)NC(=O)[C@H](NC(=O)[C@@H](N)Cc2ccc3ccccc3c2)CSSC[C@@H](C(=O)N[C@H](Cc2ccc(F)cc2)C(N)=O)NC1=O` [Analog No. 28, H2-β-Nal-D-Cys-Pal-D-Trp-Lys-Val-Cys-D-p-F-Phe-NH2] (H-[2Nal][dC][3Pal][dW]KVC[dPhe(4-F)]-NH2; disulfide 2-7) registered an IC50 of 100 nM.

`CC(C)(C)[C@@H]1NC(=O)[C@H](CCCCN)NC(=O)[C@@H](Cc2c[nH]c3ccccc23)NC(=O)[C@H](Cc2cccnc2)NC(=O)[C@H](NC(=O)[C@@H](N)Cc2ccc3ccccc3c2)CSSC[C@@H](C(=O)N[C@@H](Cc2ccc3ccccc3c2)C(N)=O)NC1=O` [Analog No. 29, H2-β-Nal-D-Cys-Pal-D-Trp-Lys-Tle-Cys-β-Nal-NH2] (H-[2Nal][dC][3Pal][dW]K[Tle]C[2Nal]-NH2; disulfide 2-7): the IC50 was determined as 8.4 nM.

Regarding `CC(C)[C@@H]1NC(=O)[C@H](CCCCN)NC(=O)[C@@H](Cc2c[nH]c3ccccc23)NC(=O)[C@H](Cc2cccnc2)NC(=O)[C@H](NC(=O)[C@@H](N)Cc2ccc(F)cc2)CSSC[C@@H](C(=O)N[C@@H](Cc2ccc3ccccc3c2)C(N)=O)NC1=O` [Analog No. 30, H2-p-F-Phe-D-Cys-Pal-D-Trp-Lys-Val-Cys-β-Nal-NH2] (H-[Phe(4-F)][dC][3Pal][dW]KVC[2Nal]-NH2; disulfide 2-7), the IC50 was found to be 6.5 nM.

Still in this experiment, the particulars now being: cultured rat pituitary cells; 1 nM SRIF and 1 nM GRF(1-29)NH2; 3 hrs at 37° C.; growth hormone by radioimmunoassay; read-out: IC50 of antagonist versus 1 nM SRIF (growth hormone release).
Turning to `CC(C)[C@@H]1NC(=O)[C@H](CCCCN)NC(=O)[C@@H](Cc2c[nH]c3ccccc23)NC(=O)[C@H](Cc2ccc(O)cc2)NC(=O)[C@H](NC(=O)[C@@H](N)Cc2c[nH]c3ccccc23)CSSC[C@@H](C(=O)N[C@H](Cc2ccc3ccccc3c2)C(N)=O)NC1=O` [Analog No. 24, H2-Trp-D-Cys-Tyr-D-Trp-Lys-Val-Cys-D-β-Nal-NH2] (H-W[dC]Y[dW]KVC[d2Nal]-NH2; disulfide 2-7), the IC50 turned out to be 68 nM.

In the case of `CC(C)[C@@H]1NC(=O)[C@H](CCCCN)NC(=O)[C@@H](Cc2c[nH]c3ccccc23)NC(=O)[C@H](Cc2ccc(O)cc2)NC(=O)[C@H](NC(=O)[C@@H](N)Cc2ccc3ccccc3c2)CSSC[C@@H](C(=O)N[C@H](Cc2ccc3ccccc3c2)C(N)=O)NC1=O` [Analog No. 25, H2-β-Nal-D-Cys-Tyr-D-Trp-Lys-Val-Cys-D-β-Nal-NH2] (H-[2Nal][dC]Y[dW]KVC[d2Nal]-NH2; disulfide 2-7), the IC50 was found to be 280 nM.

In the case of `CC(C)[C@@H]1NC(=O)[C@H](CCCCN)NC(=O)[C@@H](Cc2c[nH]c3ccccc23)NC(=O)[C@H](Cc2ccc(O)cc2)NC(=O)[C@H](NC(=O)[C@H](N)Cc2ccc3ccccc3c2)CSSC[C@@H](C(=O)N[C@H](Cc2ccc3ccccc3c2)C(N)=O)NC1=O` [Analog No. 26, H2-D-β-Nal-D-Cys-Tyr-D-Trp-Lys-Val-Cys-D-β-Nal-NH2] (H-[d2Nal][dC]Y[dW]KVC[d2Nal]-NH2; disulfide 2-7), the IC50 was 380 nM.

Values taken from patent US9133262B2, “Somatostatin antagonists” (Ipsen Pharma S.A.S., priority 1996, dated 2015).
